Experimental data taken from patent US8846694B2, “Pyrrolidone derivatives for use as MetAP-2 inhibitors” (Merck Patent GmbH, priority 2008, dated 2014).
pIC50: −log10 of the molar value.

Target: MetAP-2 (Homo sapiens, UniProt P50579)
Experiment: MetAP-2 activity measurement (coupled enzymatic reactions, substrate Met-Arg-Ser, photometric at 450 nm)
Type: biochemical
Settings: read-out: IC50 enzyme (Inhibition of MetAP-2)
Experimental: MetAP-2 Activity Measurement
The MetAP-2 activity is determined by coupling enzymatic reactions. The tripeptide Met-Arg-Ser (MAS) is employed as substrate. The methionine liberated is firstly converted into Metox and H2O2 by L-aminooxidase (AAO). In the second step, the peroxidase (POD) with the aid of the H2O2 catalyses the oxidation of the leukodye dianisidine to dianisidineox, the increase of which is detected photometrically at 450 nm.
MetAP-2 activity can be recorded continuously as kinetics. The reaction scheme illustrates that one mol of dianisidineox is formed per mol of methionene. The MetAP-2 enzyme activity can therefore be calculated directly as Δ absorption per time unit. […] of the MetAP-2 activity (mol of Met/time unit) is possible with the aid of the dianisidineox extinction coefficient.
The change in extinction per time unit is depicted graphically and a slope calculation is carried out in the visually linear region of the reaction.

Sequence of MetAP-2 (P50579 whole entry, species assumed): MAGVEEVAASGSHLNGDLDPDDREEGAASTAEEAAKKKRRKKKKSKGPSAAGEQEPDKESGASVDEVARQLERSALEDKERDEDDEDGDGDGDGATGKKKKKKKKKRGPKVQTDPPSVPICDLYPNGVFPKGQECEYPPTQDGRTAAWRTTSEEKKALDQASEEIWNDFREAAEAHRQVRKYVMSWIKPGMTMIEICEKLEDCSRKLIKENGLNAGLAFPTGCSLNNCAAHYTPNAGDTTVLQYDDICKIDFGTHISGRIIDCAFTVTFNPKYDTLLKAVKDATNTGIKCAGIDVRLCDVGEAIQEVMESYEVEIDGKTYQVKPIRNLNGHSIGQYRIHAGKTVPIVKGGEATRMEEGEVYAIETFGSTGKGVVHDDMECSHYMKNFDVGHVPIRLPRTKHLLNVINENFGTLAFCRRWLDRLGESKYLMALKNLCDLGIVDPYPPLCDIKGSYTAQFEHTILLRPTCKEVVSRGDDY

**Q.** How did the pIC50 turn out when Cn1ccc(CN(C=O)Cc2ccc(OC[C@H]3CCCN3c3ncnc4[nH]cnc34)c3ccccc23)n1 [A102, N-(1-Methyl-1H-pyrazol-3-ylmethyl)-N-{4-[(R)-1-(9H-purin-6-yl)pyrrolidin-2-ylmethoxy]-naphthalen-1-ylmethyl}formamide] was run?
**A.** 6.00 to 8.00

**Q.** How did the pIC50 turn out when c1ccc(-c2nc3ccccc3s2)c(OC[C@H]2CCCN2c2ncnc3[nH]cnc23)c1 [A103, 6-[(R)-2-(2-Benzothiazol-2-ylphenoxymethyl)-pyrrolidin-1-yl]-9H-purine] was run?
**A.** 5.00 to 6.00

**Q.** How did the pIC50 turn out when c1cc(OC[C@H]2CCCN2c2ncnc3[nH]cnc23)c2nccn2c1 [A104, 6-[(R)-2-(Imidazo[1,2-a]pyridin-8-yloxymethyl)-pyrrolidin-1-yl]-9H-purine] was run?
**A.** 5.00 to 6.00

**Q.** FC(F)(F)c1cc(OC[C@H]2CCCN2c2ncnc3[nH]cnc23)c2cc(Cl)ccc2n1 [A105, 6-Chloro-4-[(R)-1-(9H-purin-6-yl)pyrrolidin-2-yl-methoxy]-2-trifluoromethylquinoline] was tested. Which pIC50 did it give?
**A.** 6.00 to 8.00

**Q.** With c1ccc(CN2CCN(c3ccc4cccc(OC[C@H]5CCCN5c5ncnc6[nH]cnc56)c4c3)CC2)cc1 [A106, 6-{(R)-2-[7-(4-Benzylpiperazin-1-yl)naphthalen-1-yloxymethyl]pyrrolidin-1-yI}-9H-purine] as the molecule, how does the pIC50 read?
**A.** < 5.00

**Q.** With CN(C)c1ccc2cc(S(=O)(=O)O)cc(OC[C@H]3CCCN3c3ncnc4[nH]cnc34)c2c1 [A107, 6-Dimethylamino-4-[(R)-1-(9H-purin-6-yl)-pyrrolidin-2-ylmethoxy]naphthalene-2-sulfonic acid] as the molecule, how does the pIC50 read?
**A.** 5.00 to 6.00

**Q.** With c1ccc2c(NC[C@H]3CCCN3c3ncnc4[nH]cnc34)cccc2c1 [A108, Naphthalen-1-yl[(R)-1-(9H-purin-6-yl)pyrrolidin-2-ylmethyl]amine] as the molecule, how does the pIC50 read?
**A.** < 5.00

**Q.** How did the pIC50 turn out when c1ccc2c(OC[C@H]3CCCN3c3ncnc4[nH]cnc34)nccc2c1 [A109, 1-[(R)-1-(9H-Purin-6-yl)pyrrolidin-2-yl-methoxy]isoquinoline] was run?
**A.** 6.00 to 8.00

**Q.** How did the pIC50 turn out when CCCN1CCN(Cc2ccc(OC[C@H]3CCCN3c3ncnc4[nH]cnc34)c3ccccc23)CC1 [A110, 6-{(R)-2-[4-(4-Propylpiperazin-1-ylmethyl)-naphthalen-1-yloxymethyl]pyrrolidin-1-yl}-9H-purine] was run?
**A.** 6.00 to 8.00

**Q.** CC(=O)N1CCN(Cc2ccc(OC[C@H]3CCCN3c3ncnc4[nH]cnc34)c3ccccc23)CC1 [A111, 1-(4-{4-[(R)-1-(9H-Purin-6-yl)pyrrolidin-2-yl-methoxy]naphthalen-1-ylmethyl}piperazin-1-yl)-ethanone] was tested. Which pIC50 did it give?
**A.** 6.00 to 8.00

**Q.** How did the pIC50 turn out when c1ccc2c(OC[C@H]3CCCN3c3ncnc4[nH]cnc34)ccc(CN3CCN(C4CCCC4)CC3)c2c1 [A112, 6-{(R)-2-[4-(4-Cyclopentylpiperazin-1-yl-methyl)naphthalen-1-yloxymethyl]pyrrolidin-1-yl}-9H-purine] was run?
**A.** 6.00 to 8.00

**Q.** COCCN1CCN(Cc2ccc(OC[C@H]3CCCN3c3ncnc4[nH]cnc34)c3ccccc23)CC1 [A113, 6-((R)-2-{4-[4-(2-Methoxyethyl)piperazin-1-yl-methyl]naphthalen-1-yloxymethyl}pyrrolidin-1-yl)-9H-purine] was tested. Which pIC50 did it give?
**A.** 6.00 to 8.00

**Q.** How did the pIC50 turn out when OC[C@H]1CCCN1Cc1ccc(OC[C@H]2CCCN2c2ncnc3[nH]cnc23)c2ccccc12 [A114, ((R)-1-{4-[(R)-1-(9H-Purin-6-yl)pyrrolidin-2-yl-methoxy]naphthalen-1-ylmethyl}pyrrolidin-2-yl)-methanol] was run?
**A.** 6.00 to 8.00

**Q.** How did the pIC50 turn out when c1cc(OC[C@H]2CCCN2c2ncnc3[nH]cnc23)c2cc(N3CCNCC3)ccc2c1 [A115, 6-[(R)-2-(7-Piperazin-1-ylnaphthalen-1-yl-oxymethyl)pyrrolidin-1-yl]-9H-purine] was run?
**A.** 6.00 to 8.00

**Q.** How did the pIC50 turn out when CC(=O)N1CCN(c2ccc3cccc(OC[C@H]4CCCN4c4ncnc5[nH]cnc45)c3c2)CC1 [A116, 1-(4-{8-[(R)-1-(9H-Purin-6-yl)pyrrolidin-2-yl-methoxy]naphthalen-2-yl}piperazin-1-yl)-ethanone] was run?
**A.** 6.00 to 8.00

**Q.** Cc1ccc2nc(C(F)(F)F)cc(OC[C@H]3CCCN3c3ncnc4[nH]cnc34)c2c1 [A117, 6-Methyl-4-[(R)-1-(9H-purin-6-yl)pyrrolidin-2-yl-methoxy]-2-trifluoromethylquinoline] was tested. Which pIC50 did it give?
**A.** 6.00 to 8.00

**Q.** COc1ccc2cccc(OC[C@H]3CCCN3c3ncnc4[nH]cnc34)c2c1 [A118, 6-[(R)-2-(7-Methoxynaphthalen-1-yloxymethyl)-pyrrolidin-1-yl]-9H-purine] was tested. Which pIC50 did it give?
**A.** 6.00 to 8.00

**Q.** How did the pIC50 turn out when CCCCOC1=Cc2c(cccc2OC[C@H]2CCCN2c2ncnc3[nH]cnc23)CC1 [A119, 6-[(R)-2-(7-Butoxy-5,6-dihydronaphthalen-1-yl-oxymethyl)pyrrolidin-1-yl]-9H-purine] was run?
**A.** 5.00 to 6.00

**Q.** How did the pIC50 turn out when O=C(OCc1ccccc1)N1CCc2cccc(OC[C@H]3CCCN3c3ncnc4[nH]cnc34)c2C1 [A120, Benzyl 8-[(R)-1-(9H-purin-6-yl)pyrrolidin-2-yl-methoxy]-3,4-dihydro-1H-isoquinoline-2-carboxylate] was run?
**A.** 5.00 to 6.00

**Q.** How did the pIC50 turn out when O=C1CCc2cccc(OC[C@H]3CCCN3c3ncnc4[nH]cnc34)c2C1 [A121, 8-[(R)-1-(9H-Purin-6-yl)pyrrolidin-2-ylmethoxy]-3,4-dihydro-1H-naphthalen-2-one] was run?
**A.** 5.00 to 6.00

**Q.** How did the pIC50 turn out when c1cc2c(c(OC[C@H]3CCCN3c3ncnc4[nH]cnc34)c1)CNCC2 [A122, 8-[(R)-1-(9H-Purin-6-yl)pyrrolidin-2-ylmethoxy]-1,2,3,4-tetrahydroisoquinoline] was run?
**A.** 6.00 to 8.00

**Q.** With FC(F)(F)c1ccc2nccc(OC[C@H]3CCCN3c3ncnc4[nH]cnc34)c2c1 [A123, 4-[(R)-1-(9H-Purin-6-yl)pyrrolidin-2-ylmethoxy]-6-trifluoromethylquinoline] as the molecule, how does the pIC50 read?
**A.** 6.00 to 8.00

**Q.** Oc1ccc2cccc(OC[C@H]3CCCN3c3ncnc4[nH]cnc34)c2c1 [A124, 8-[(R)-1-(9H-Purin-6-yl)pyrrolidin-2-yl-methoxy]naphthalen-2-ol] was tested. Which pIC50 did it give?
**A.** 5.00 to 6.00

**Q.** Cn1ncc(Cl)c1C[C@@H]1CCc2c(OC[C@H]3CCCN3c3ncnc4[nH]cnc34)cccc2C1=O [A125, (S)-2-(4-Chloro-2-methyl-2H-pyrazol-3-yl-methyl)-5-[(R)-1-(9H-purin-6-yl)pyrrolidin-2-yl-methoxy]-3,4-dihydro-2H-naphthalen-1-one] was tested. Which pIC50 did it give?
**A.** 6.00 to 8.00

**Q.** Cn1ncc(Cl)c1C[C@H]1CCc2c(OC[C@H]3CCCN3c3ncnc4[nH]cnc34)cccc2C1=O [A126, (R)-2-(4-Chloro-2-methyl-2H-pyrazol-3-yl-methyl)-5-[(R)-1-(9H-purin-6-yl)pyrrolidin-2-yl-methoxy]-3,4-dihydro-2H-naphthalen-1-one] was tested. Which pIC50 did it give?
**A.** 6.00 to 8.00

**Q.** How did the pIC50 turn out when CCN(CC)C(=O)c1cc2cccc(OC[C@H]3CCCN3c3ncnc4[nH]cnc34)c2cc1O [A127, N,N-Diethyl-3-hydroxy-5-[(R)-1-(9H-purin-6-yl)-pyrrolidin-2-ylmethoxy]naphthalene-2-carboxamide] was run?
**A.** 6.00 to 8.00

**Q.** With N#CCCN1CCN(Cc2ccc(OC[C@H]3CCCN3c3ncnc4[nH]cnc34)c3ccccc23)CC1 [A128, 3-(4-{4-[(R)-1-(9H-Purin-6-yl)pyrrolidin-2-yl-methoxy]naphthalen-1-ylmethyl}piperazin-1-yl)-propionitrile] as the molecule, how does the pIC50 read?
**A.** 6.00 to 8.00

**Q.** With O=C1c2cccc(OC[C@H]3CCCN3c3ncnc4[nH]cnc34)c2CC[C@@H]1Cc1cc[nH]n1 [A129, (R)-5-[(R)-1-(9H-Purin-6-yl)pyrrolidin-2-yl-methoxy]-2-(1H-pyrazol-3-ylmethyl)-3,4-dihydro-2H-naphthalen-1-one] as the molecule, how does the pIC50 read?
**A.** 6.00 to 8.00

**Q.** With O=C1c2cccc(OC[C@H]3CCCN3c3ncnc4[nH]cnc34)c2CC[C@H]1Cc1cc[nH]n1 [A130, (S)-5-[(R)-1-(9H-Purin-6-yl)pyrrolidin-2-yl-methoxy]-2-(1H-pyrazol-3-ylmethyl)-3,4-dihydro-2H-naphthalen-1-one] as the molecule, how does the pIC50 read?
**A.** 6.00 to 8.00

**Q.** How did the pIC50 turn out when Oc1ccc2cccc(NC[C@H]3CCCN3c3ncnc4[nH]cnc34)c2c1 [A131, 8-{[(R)-1-(9H-Purin-6-yl)pyrrolidin-2-ylmethyl]-amino}naphthalen-2-ol] was run?
**A.** < 5.00

**Q.** O=S(=O)(O)c1ccc2cccc(NC[C@H]3CCCN3c3ncnc4[nH]cnc34)c2c1 [A132, 8-{[(R)-1-(9H-Purin-6-yl)pyrrolidin-2-yimethyl]-amino}naphthalene-2-sulfonic acid] was tested. Which pIC50 did it give?
**A.** < 5.00

**Q.** How did the pIC50 turn out when CC(C)(C)OC(=O)NCCCCCC(=O)N1CCc2cccc(OC[C@H]3CCCN3c3ncnc4[nH]cnc34)c2C1 [A133, tert-Butyl (6-oxo-6-{8-[(R)-1-(9H-purin-6-yl)-pyrrolidin-2-ylmethoxy]-3,4-dihydro-1H-isoquinolin-2-yl}hexyl)carbamate] was run?
**A.** 5.00 to 6.00

**Q.** How did the pIC50 turn out when O=C1OCCC1CCn1cnc2c(N3CCC[C@@H]3COc3cccc4ccc(O)cc34)ncnc21 (stereo partly drawn) [A134, 3-(2-{6-[(R)-2-(7-Hydroxynaphthalen-1-yl-oxymethyl)pyrrolidin-1-yl]purin-9-yl}ethyl)-dihydrofuran-2-one] was run?
**A.** 5.00 to 6.00

**Q.** How did the pIC50 turn out when NC(=O)CCn1cnc2c(N3CCC[C@@H]3COc3cccc4ccc(O)cc34)ncnc21 [A135, 3-{6-[(R)-2-(7-Hydroxynaphthalen-1-yl-oxymethyl)pyrrolidin-1-yl]purin-9-yl}-propionamide] was run?
**A.** < 5.00

**Q.** CCOC(=O)CCCCn1cnc2c(N3CCC[C@@H]3COc3cccc4ccc(O)cc34)ncnc21 [A136, Ethyl 5-{6-[(R)-2-(7-hydroxynaphthalen-1-yl-oxymethyl)pyrrolidin-1-yl]purin-9-yl}pentanoate] was tested. Which pIC50 did it give?
**A.** < 5.00

**Q.** FC(F)(F)Oc1ccc2nccc(OC[C@H]3CCCN3c3ncnc4[nH]cnc34)c2c1 [A137, 4-[(R)-1-(9H-Purin-6-yl)pyrrolidin-2-ylmethoxy]-6-trifluoromethoxyquinoline] was tested. Which pIC50 did it give?
**A.** 6.00 to 8.00

**Q.** With NCCCCCC(=O)N1CCc2cccc(OC[C@H]3CCCN3c3ncnc4[nH]cnc34)c2C1 [A138, 6-Amino-1-{8-[(R)-1-(9H-purin-6-yl)pyrrolidin-2-ylmethoxy]-3,4-dihydro-1H-isoquinolin-2-yl}-hexan-1-one] as the molecule, how does the pIC50 read?
**A.** 6.00 to 8.00
